From the supplement of paper PMC10307832 come the findings set out here.

The subject of the first test is HCC-827. Description: relative viability (nuclei count vs DMSO), 5 days (fraction); higher = more cells survive. To be noted: first compound 0.8 µM. A digest of the protocol: (§1)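 Relative viability equals treated-well nuclei counts divided by vehicle-well nuclei counts. Counts came from 4× images of lung cancer cell lines grown in 1536-well plates for 5 days after pin-tool dosing on the day after seeding. Dosing used one drug alone or a fixed anchor-drug dose plus five library-drug doses (not always all listed) in √10 steps, and values are medians of duplicate plates.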
In the case of `CCCCCCCCCCCC1=C(O)C(=O)C=C(O)C1=O` [Embelin] + COc1cc2c(Oc3ccc(NC(=O)C4(C(=O)Nc5ccc(F)cc5)CC4)cc3F)ccnc2cc1OCCCN1CCOCC1 [Foretinib] (partner 0.25 µM), the relative viability was determined as 1.11.
On the same count and under the same terms, the figure for `CCCCCCCCCCCC1=C(O)C(=O)C=C(O)C1=O` [Embelin] + CS(=O)(=O)N1CCN(Cc2cc3nc(-c4cccc5[nH]ncc45)nc(N4CCOCC4)c3s2)CC1 [Pictilisib] (partner 1 µM) is 1.04.
For the molecule `CCCCCCCCCCCC1=C(O)C(=O)C=C(O)C1=O` [Embelin] + C[C@@H](Oc1cc(-c2cnn(C3CCNCC3)c2)cnc1N)c1c(Cl)ccc(F)c1Cl [Crizotinib] (partner 1 µM), the relative viability worked out at 0.931.

The test is the same for the next values; noted with them: first compound 2.53 µM.
`CCCCCCCCCCCC1=C(O)C(=O)C=C(O)C1=O` [Embelin] + O=C(CCCCCCC(=O)Nc1ccccc1)NO [Vorinostat] (partner 1 µM) yielded a relative viability of 0.966.
For `CCCCCCCCCCCC1=C(O)C(=O)C=C(O)C1=O` [Embelin] + Cc1cc(Nc2cc(N3CCN(C)CC3)nc(Sc3ccc(NC(=O)C4CC4)cc3)n2)n[nH]1 [Tozasertib] (partner 0.1 µM), the relative viability was determined as 0.419.
Still for that read-out and setting: the value for `CCCCCCCCCCCC1=C(O)C(=O)C=C(O)C1=O` [Embelin] + COc1cc2c(Oc3ccc(NC(=O)C4(C(=O)Nc5ccc(F)cc5)CC4)cc3F)ccnc2cc1OCCCN1CCOCC1 [Foretinib] (partner 0.25 µM) was 1.03; that for `CCCCCCCCCCCC1=C(O)C(=O)C=C(O)C1=O` [Embelin] + CS(=O)(=O)N1CCN(Cc2cc3nc(-c4cccc5[nH]ncc45)nc(N4CCOCC4)c3s2)CC1 [Pictilisib] (partner 1 µM) was 1.16.
On to `CCCCCCCCCCCC1=C(O)C(=O)C=C(O)C1=O` [Embelin] + C[C@@H](Oc1cc(-c2cnn(C3CCNCC3)c2)cnc1N)c1c(Cl)ccc(F)c1Cl [Crizotinib] (partner 1 µM), for which the relative viability came out at 0.976.

The test is the same for the next values; noted with them: first compound 8 µM.
For the molecule `CCCCCCCCCCCC1=C(O)C(=O)C=C(O)C1=O` [Embelin] + O=C(CCCCCCC(=O)Nc1ccccc1)NO [Vorinostat] (partner 1 µM), the relative viability worked out at 0.917.
Take `CCCCCCCCCCCC1=C(O)C(=O)C=C(O)C1=O` [Embelin] + Cc1cc(Nc2cc(N3CCN(C)CC3)nc(Sc3ccc(NC(=O)C4CC4)cc3)n2)n[nH]1 [Tozasertib] (partner 0.1 µM): the relative viability stood at 0.424.
Same read-out and setting: the value for `CCCCCCCCCCCC1=C(O)C(=O)C=C(O)C1=O` [Embelin] + COc1cc2c(Oc3ccc(NC(=O)C4(C(=O)Nc5ccc(F)cc5)CC4)cc3F)ccnc2cc1OCCCN1CCOCC1 [Foretinib] (partner 0.25 µM) was 1.16; that for `CCCCCCCCCCCC1=C(O)C(=O)C=C(O)C1=O` [Embelin] + CS(=O)(=O)N1CCN(Cc2cc3nc(-c4cccc5[nH]ncc45)nc(N4CCOCC4)c3s2)CC1 [Pictilisib] (partner 1 µM) was 1.19; that for `CCCCCCCCCCCC1=C(O)C(=O)C=C(O)C1=O` [Embelin] + C[C@@H](Oc1cc(-c2cnn(C3CCNCC3)c2)cnc1N)c1c(Cl)ccc(F)c1Cl [Crizotinib] (partner 1 µM) was 0.977.

In another test the test system is HCC-15. The test is described as above. The note with it: first compound 0.08 µM. A digest of the protocol:
as §1
As to `CCCCCCCCCCCC1=C(O)C(=O)C=C(O)C1=O` [Embelin] + O=C(CCCCCCC(=O)Nc1ccccc1)NO [Vorinostat] (partner 1 µM), the relative viability amounted to 0.906.
The same measure, in the same setting: the figure for `CCCCCCCCCCCC1=C(O)C(=O)C=C(O)C1=O` [Embelin] + Cc1cc(Nc2cc(N3CCN(C)CC3)nc(Sc3ccc(NC(=O)C4CC4)cc3)n2)n[nH]1 [Tozasertib] (partner 0.1 µM) is 0.412.
On the same count and under the same terms, the figure for `CCCCCCCCCCCC1=C(O)C(=O)C=C(O)C1=O` [Embelin] + COc1cc2c(Oc3ccc(NC(=O)C4(C(=O)Nc5ccc(F)cc5)CC4)cc3F)ccnc2cc1OCCCN1CCOCC1 [Foretinib] (partner 0.25 µM) is 1.01; for `CCCCCCCCCCCC1=C(O)C(=O)C=C(O)C1=O` [Embelin] + CS(=O)(=O)N1CCN(Cc2cc3nc(-c4cccc5[nH]ncc45)nc(N4CCOCC4)c3s2)CC1 [Pictilisib] (partner 1 µM) it is 0.736.
Still for that read-out and setting: the figure for `CCCCCCCCCCCC1=C(O)C(=O)C=C(O)C1=O` [Embelin] + C[C@@H](Oc1cc(-c2cnn(C3CCNCC3)c2)cnc1N)c1c(Cl)ccc(F)c1Cl [Crizotinib] (partner 1 µM) is 0.779.

Staying with this test, now noted: first compound 0.8 µM.
As to `CCCCCCCCCCCC1=C(O)C(=O)C=C(O)C1=O` [Embelin] + O=C(CCCCCCC(=O)Nc1ccccc1)NO [Vorinostat] (partner 1 µM), the relative viability was found to be 0.965.
Same read-out and setting: the value for `CCCCCCCCCCCC1=C(O)C(=O)C=C(O)C1=O` [Embelin] + Cc1cc(Nc2cc(N3CCN(C)CC3)nc(Sc3ccc(NC(=O)C4CC4)cc3)n2)n[nH]1 [Tozasertib] (partner 0.1 µM) was 0.486; that for `CCCCCCCCCCCC1=C(O)C(=O)C=C(O)C1=O` [Embelin] + COc1cc2c(Oc3ccc(NC(=O)C4(C(=O)Nc5ccc(F)cc5)CC4)cc3F)ccnc2cc1OCCCN1CCOCC1 [Foretinib] (partner 0.25 µM) was 1.08.
The same measure, in the same setting: the figure for `CCCCCCCCCCCC1=C(O)C(=O)C=C(O)C1=O` [Embelin] + CS(=O)(=O)N1CCN(Cc2cc3nc(-c4cccc5[nH]ncc45)nc(N4CCOCC4)c3s2)CC1 [Pictilisib] (partner 1 µM) is 0.802.
Same read-out and setting: the value for `CCCCCCCCCCCC1=C(O)C(=O)C=C(O)C1=O` [Embelin] + C[C@@H](Oc1cc(-c2cnn(C3CCNCC3)c2)cnc1N)c1c(Cl)ccc(F)c1Cl [Crizotinib] (partner 1 µM) was 0.852.

Staying with this test, now noted: first compound 2.53 µM.
Molecule `CCCCCCCCCCCC1=C(O)C(=O)C=C(O)C1=O` [Embelin] + O=C(CCCCCCC(=O)Nc1ccccc1)NO [Vorinostat] (partner 1 µM) gave a relative viability of 0.908.
On the same count and under the same terms, the figure for `CCCCCCCCCCCC1=C(O)C(=O)C=C(O)C1=O` [Embelin] + Cc1cc(Nc2cc(N3CCN(C)CC3)nc(Sc3ccc(NC(=O)C4CC4)cc3)n2)n[nH]1 [Tozasertib] (partner 0.1 µM) is 0.55; for `CCCCCCCCCCCC1=C(O)C(=O)C=C(O)C1=O` [Embelin] + COc1cc2c(Oc3ccc(NC(=O)C4(C(=O)Nc5ccc(F)cc5)CC4)cc3F)ccnc2cc1OCCCN1CCOCC1 [Foretinib] (partner 0.25 µM) it is 1.14; for `CCCCCCCCCCCC1=C(O)C(=O)C=C(O)C1=O` [Embelin] + CS(=O)(=O)N1CCN(Cc2cc3nc(-c4cccc5[nH]ncc45)nc(N4CCOCC4)c3s2)CC1 [Pictilisib] (partner 1 µM) it is 0.85.
For the molecule `CCCCCCCCCCCC1=C(O)C(=O)C=C(O)C1=O` [Embelin] + C[C@@H](Oc1cc(-c2cnn(C3CCNCC3)c2)cnc1N)c1c(Cl)ccc(F)c1Cl [Crizotinib] (partner 1 µM), the relative viability stood at 1.

The same test, now with this note: first compound 8 µM.
The molecule `CCCCCCCCCCCC1=C(O)C(=O)C=C(O)C1=O` [Embelin] + O=C(CCCCCCC(=O)Nc1ccccc1)NO [Vorinostat] (partner 1 µM) had a relative viability of 0.841.
On the same count and under the same terms, the figure for `CCCCCCCCCCCC1=C(O)C(=O)C=C(O)C1=O` [Embelin] + Cc1cc(Nc2cc(N3CCN(C)CC3)nc(Sc3ccc(NC(=O)C4CC4)cc3)n2)n[nH]1 [Tozasertib] (partner 0.1 µM) is 0.401.
